Measurements: publication PMC6152678, “In Vitro Comparative Study of the Inhibitory Effects of Mangiferin and Its Aglycone Norathyriol towards UDP-Glucuronosyl Transferase (UGT) Isoforms” (Molecules : A Journal of Synthetic Chemistry and Natural …, 2017)

Key:
UGT1A9 = biological target: T1, UGT1A9 (Homo sapiens, UniProt O60656); experiment: Inhibition of recombinant UGT-catalyzed 4-MU glucuronidation; assay type: biochemical; details: for inhibition at 30 min, 100 µM: human, pH 7.4, probe 4-methylumbelliferone (4-MU), 30 μM, 100 μM compound, 4-MU probe substrate, negative = activation
T1 construct: purchased BD Gentest Corp. (Woburn, MA, USA); host or cells: baculovirus-infected insect cells
T1 sequence (O60656 26-530): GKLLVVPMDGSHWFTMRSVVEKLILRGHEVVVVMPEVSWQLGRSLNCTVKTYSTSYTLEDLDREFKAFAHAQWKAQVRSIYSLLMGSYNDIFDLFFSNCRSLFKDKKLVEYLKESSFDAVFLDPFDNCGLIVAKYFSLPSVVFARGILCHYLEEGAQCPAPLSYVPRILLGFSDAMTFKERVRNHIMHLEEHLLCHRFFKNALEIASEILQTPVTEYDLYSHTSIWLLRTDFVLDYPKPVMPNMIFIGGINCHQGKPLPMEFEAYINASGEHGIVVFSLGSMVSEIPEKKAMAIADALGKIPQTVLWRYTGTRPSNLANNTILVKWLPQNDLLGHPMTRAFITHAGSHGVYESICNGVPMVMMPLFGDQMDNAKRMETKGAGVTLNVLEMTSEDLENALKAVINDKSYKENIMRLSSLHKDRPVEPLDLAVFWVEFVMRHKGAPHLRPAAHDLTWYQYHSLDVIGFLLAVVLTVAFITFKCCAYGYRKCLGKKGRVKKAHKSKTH

UGT2B17 = biological target: T2, UGT2B17 (Homo sapiens, UniProt O75795); experiment: as above; assay type: biochemical; details: pH 7.4, probe 4-methylumbelliferone (4-MU), 2000 μM, 100 μM compound, 4-MU probe substrate, negative = activation
T2 construct: purchased BD Gentest Corp. (Woburn, MA, USA); host or cells: baculovirus-infected insect cells
T2 sequence (O75795 24-530): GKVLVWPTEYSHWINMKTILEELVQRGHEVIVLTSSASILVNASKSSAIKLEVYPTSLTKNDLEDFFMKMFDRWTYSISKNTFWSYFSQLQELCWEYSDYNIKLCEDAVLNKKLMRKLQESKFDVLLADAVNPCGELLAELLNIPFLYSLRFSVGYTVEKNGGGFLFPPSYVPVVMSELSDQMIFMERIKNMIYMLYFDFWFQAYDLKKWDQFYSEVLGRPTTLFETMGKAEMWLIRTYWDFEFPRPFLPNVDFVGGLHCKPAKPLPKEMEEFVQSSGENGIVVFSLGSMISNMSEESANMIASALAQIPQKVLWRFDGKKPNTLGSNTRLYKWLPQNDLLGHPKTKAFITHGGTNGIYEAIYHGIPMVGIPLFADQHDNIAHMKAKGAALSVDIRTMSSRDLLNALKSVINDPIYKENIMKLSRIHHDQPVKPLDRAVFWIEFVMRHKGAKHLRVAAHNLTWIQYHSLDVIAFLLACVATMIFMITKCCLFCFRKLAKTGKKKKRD

In the case of O=c1c2cc(O)c(O)cc2oc2cc(O)cc(O)c12 [NTR, 1,3,6,7-tetrahydroxyxanthone], the IC50 (UGT1A9; 4-MU glucuronidation, Probit analysis, read-out: IC50 towards UGT1A9) is reported as 12.3 µM, the “inhibition type towards UGT1A9” value (UGT1A9; Dixon plot and Lineweaver-Burk plot) is reported as “competitively inhibited” and the inhibition at 30 min, 100 µM (UGT1A9) is reported as 94.2%. The Ki (UGT1A9; second plot of Lineweaver-Burk slopes, read-out: inhibition constant (Ki) towards UGT1A9) was 2.8 µM and the inhibition at 120 min, 100 µM (UGT2B17) was 48.6%.

With O=c1c2cc(O)c(O)cc2oc2cc(O)c([C@@H]3O[C@H](CO)[C@@H](O)[C@H](O)[C@H]3O)c(O)c12 [MGF, 1,3,6,7-tetrahydroxyxanthone-C-2-β-D-glucoside] the inhibition at 30 min, 100 µM (UGT1A9) was 8.2% and the inhibition at 120 min, 100 µM (UGT2B17) was -106%.
